# Test results as given in ChEMBL document CHEMBL3885881, “DrugMatrix”.
# Species: Rattus norvegicus
# Experiment: DrugMatrix - Regimen: Daily Repeat
# Type: toxicity, organism-based, Sprague-Dawley
# Parameters: regimen Daily Repeat, gender Male, age 6-8 weeks
# Settings: in vivo, po, route oral GAVAGE, vehicle .5 % CMC; for ABSOLUTE BASOPHIL / ABSOLUTE EOSINOPHIL / ABSOLUTE LYMPHOCYTE / ABSOLUTE MONOCYTE / ABSOLUTE SEGMENTED NEUTROPHIL / BASOPHIL / EOSINOPHIL / ERYTHROCYTE COUNT / HEMATOCRIT / HEMOGLOBIN / LEUKOCYTE COUNT / LYMPHOCYTE / MEAN CORPUSCULAR HEMOGLOBIN / MEAN CORPUSCULAR HEMOGLOBIN CONCENTRATION / MEAN CORPUSCULAR VOLUME / MONOCYTE / NEUTROPHIL / NUCLEATED RED BLOOD CELLS / PLATELET COUNT: tissue Blood; for ALANINE AMINOTRANSFERASE / ALBUMIN / ALKALINE PHOSPHATASE / ASPARTATE AMINOTRANSFERASE / BLOOD UREA NITROGEN / CARBON DIOXIDE / CHLORIDE / CHOLESTEROL / CREATINE PHOSPHOKINASE / CREATININE / GLUCOSE / LACTATE DEHYDROGENASE / LIPASE / PHOSPHORUS / POTASSIUM / SODIUM / TOTAL BILIRUBIN / TOTAL PROTEIN / URIC ACID: tissue Plasma
# [1] = 0 mg/kg, 72 h, dose level Control, time 3 day
# [2] = 0 mg/kg, 120 h, dose level Control, time 5 day
# [3] = 2500 mg/kg, 72 h, dose level High, time 3 day
smiles,measurement,setting,value
CN1CCC[C@@H]1CCO[C@](C)(c1ccccc1)c1ccc(Cl)cc1 [CLEMASTINE],ABSOLUTE BASOPHIL,[1],0 CELLS/uL
same,ABSOLUTE EOSINOPHIL,[1],0 CELLS/uL
same,ABSOLUTE LYMPHOCYTE,[1],12191.17 CELLS/uL
same,ABSOLUTE MONOCYTE,[1],183.17 CELLS/uL
same,ABSOLUTE SEGMENTED NEUTROPHIL,[1],1192.33 CELLS/uL
same,BASOPHIL,[1],0%
same,EOSINOPHIL,[1],0%
same,ERYTHROCYTE COUNT,[1],5.51 x10E6/uL
same,HEMATOCRIT,[1],35.45%
same,HEMOGLOBIN,[1],13.82 G/DL
same,LEUKOCYTE COUNT,[1],13.57 x10E3/uL
same,LYMPHOCYTE,[1],89.83%
same,MEAN CORPUSCULAR HEMOGLOBIN,[1],25.1 pg
same,MEAN CORPUSCULAR HEMOGLOBIN CONCENTRATION,[1],38.98 G/DL
same,MEAN CORPUSCULAR VOLUME,[1],64.42 fL
same,MONOCYTE,[1],1.33%
same,NEUTROPHIL,[1],8.83%
same,NUCLEATED RED BLOOD CELLS,[1],0 /100WBC
same,PLATELET COUNT,[1],1118.17 x10E3/uL
same,ALANINE AMINOTRANSFERASE,[1],55 u/L
same,ALBUMIN,[1],4.15 G/DL
same,ALKALINE PHOSPHATASE,[1],449.5 u/L
same,ASPARTATE AMINOTRANSFERASE,[1],112.83 u/L
same,BLOOD UREA NITROGEN,[1],17.33 mg/dL
same,CARBON DIOXIDE,[1],29.5 mmol/L
same,CHLORIDE,[1],101 MEQ/L
same,CHOLESTEROL,[1],70 mg/dL
same,CREATINE PHOSPHOKINASE,[1],1325.83 u/L
same,CREATININE,[1],0.18 mg/dL
same,GLUCOSE,[1],171.5 mg/dL
same,LACTATE DEHYDROGENASE,[1],386 u/L
same,LIPASE,[1],10 u/L
same,PHOSPHORUS,[1],11.57 mg/dL
same,POTASSIUM,[1],6.21 MEQ/L
same,SODIUM,[1],141.65 MEQ/L
same,TOTAL BILIRUBIN,[1],0.15 mg/dL
same,TOTAL PROTEIN,[1],5.75 G/DL
same,URIC ACID,[1],1.28 mg/dL
same,ABSOLUTE BASOPHIL,[2],0 CELLS/uL
same,ABSOLUTE EOSINOPHIL,[2],138.17 CELLS/uL
same,ABSOLUTE LYMPHOCYTE,[2],13283.17 CELLS/uL
same,ABSOLUTE MONOCYTE,[2],303.83 CELLS/uL
same,ABSOLUTE SEGMENTED NEUTROPHIL,[2],1308.17 CELLS/uL
same,BASOPHIL,[2],0%
same,EOSINOPHIL,[2],1%
same,ERYTHROCYTE COUNT,[2],5.32 x10E6/uL
same,HEMATOCRIT,[2],33.8%
same,HEMOGLOBIN,[2],13.63 G/DL
same,LEUKOCYTE COUNT,[2],15.03 x10E3/uL
same,LYMPHOCYTE,[2],88.33%
same,MEAN CORPUSCULAR HEMOGLOBIN,[2],25.68 pg
same,MEAN CORPUSCULAR HEMOGLOBIN CONCENTRATION,[2],40.35 G/DL
same,MEAN CORPUSCULAR VOLUME,[2],63.67 fL
same,MONOCYTE,[2],1.83%
same,NEUTROPHIL,[2],8.83%
same,NUCLEATED RED BLOOD CELLS,[2],0 /100WBC
same,PLATELET COUNT,[2],1097.5 x10E3/uL
same,ALANINE AMINOTRANSFERASE,[2],54.5 u/L
same,ALBUMIN,[2],4.27 G/DL
same,ALKALINE PHOSPHATASE,[2],337 u/L
same,ASPARTATE AMINOTRANSFERASE,[2],94.67 u/L
same,BLOOD UREA NITROGEN,[2],17 mg/dL
same,CARBON DIOXIDE,[2],28.33 mmol/L
same,CHLORIDE,[2],101.5 MEQ/L
same,CHOLESTEROL,[2],71.33 mg/dL
same,CREATINE PHOSPHOKINASE,[2],628.17 u/L
same,CREATININE,[2],0.19 mg/dL
same,GLUCOSE,[2],177.83 mg/dL
same,LACTATE DEHYDROGENASE,[2],500.5 u/L
same,LIPASE,[2],9.5 u/L
same,PHOSPHORUS,[2],12.3 mg/dL
same,POTASSIUM,[2],5.63 MEQ/L
same,SODIUM,[2],143.03 MEQ/L
same,TOTAL BILIRUBIN,[2],0.2 mg/dL
same,TOTAL PROTEIN,[2],6.02 G/DL
same,URIC ACID,[2],1.5 mg/dL
same,ABSOLUTE BASOPHIL,[3],0 CELLS/uL
same,ABSOLUTE EOSINOPHIL,[3],0 CELLS/uL
same,ABSOLUTE LYMPHOCYTE,[3],7950 CELLS/uL
same,ABSOLUTE MONOCYTE,[3],225 CELLS/uL
same,ABSOLUTE SEGMENTED NEUTROPHIL,[3],1825 CELLS/uL
same,BASOPHIL,[3],0%
same,EOSINOPHIL,[3],0%
same,ERYTHROCYTE COUNT,[3],6.97 x10E6/uL
same,HEMATOCRIT,[3],42.9%
same,HEMOGLOBIN,[3],16.67 G/DL
same,LEUKOCYTE COUNT,[3],10 x10E3/uL
same,LYMPHOCYTE,[3],77%
same,MEAN CORPUSCULAR HEMOGLOBIN,[3],23.97 pg
same,MEAN CORPUSCULAR HEMOGLOBIN CONCENTRATION,[3],38.87 G/DL
same,MEAN CORPUSCULAR VOLUME,[3],61.6 fL
same,MONOCYTE,[3],2.33%
same,NEUTROPHIL,[3],20.67%
same,NUCLEATED RED BLOOD CELLS,[3],0 /100WBC
same,PLATELET COUNT,[3],1501 x10E3/uL
same,ALANINE AMINOTRANSFERASE,[3],133 u/L
same,ALBUMIN,[3],4.1 G/DL
same,ALKALINE PHOSPHATASE,[3],344 u/L
same,ASPARTATE AMINOTRANSFERASE,[3],444 u/L
same,BLOOD UREA NITROGEN,[3],70.67 mg/dL
same,CARBON DIOXIDE,[3],23 mmol/L
same,CHLORIDE,[3],102.5 MEQ/L
same,CHOLESTEROL,[3],44.33 mg/dL
same,CREATINE PHOSPHOKINASE,[3],1897.33 u/L
same,CREATININE,[3],0.69 mg/dL
same,GLUCOSE,[3],201 mg/dL
same,LACTATE DEHYDROGENASE,[3],1757 u/L
same,LIPASE,[3],14.33 u/L
same,PHOSPHORUS,[3],18 mg/dL
same,POTASSIUM,[3],6.26 MEQ/L
same,SODIUM,[3],145.75 MEQ/L
same,TOTAL BILIRUBIN,[3],0.73 mg/dL
same,TOTAL PROTEIN,[3],5.93 G/DL
same,URIC ACID,[3],2.83 mg/dL
